Converted amounts (≈) assume the structure as drawn.

Sequence of human MIF (P14174 2-115): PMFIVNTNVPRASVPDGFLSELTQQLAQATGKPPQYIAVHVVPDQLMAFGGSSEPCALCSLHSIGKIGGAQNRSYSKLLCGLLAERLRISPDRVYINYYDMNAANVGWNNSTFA

The first series concerns the target human MIF (Homo sapiens (Human), UniProt P14174). As to the kind of experiment: Inhibition of tautomerase activity of human MIF (HPP substrate). The series is classed as biochemical. As to conditions: MIF tautomerase, HPP substrate, 50 nM MIF.
The compound `COCCOc1ccc2nc(-c3cn(-c4ccc(F)cc4)nn3)ccc2c1` [Example 3, 2-(1-(4-Fluorophenyl)-1H-1,2,3-triazol-4-yl)-6-(2-methoxyethoxy)quinoline] yielded a Ki of 8900 nM.

For `Cc1cc2ccccc2nc1-c1cn(-c2ccc(O)cc2)nn1` [Example 11, 4-(4-(3-Methylquinolin-2-yl)-1H-1,2,3-triazol-1-yl)phenol], the Ki was determined as 7300 nM.

Consider `Cc1cc(-c2cn(-c3ccc(O)cc3)nn2)nc2ccccc12` [Example 12, 4-(4-(4-Methylquinolin-2-yl)-1H-1,2,3-triazol-1-yl)phenol], for which the affinity corresponds to a Ki of 2300 nM.

The compound `COc1cccc2ccc(-c3cn(-c4ccc(F)cc4)nn3)nc12` [Example 14, 2-(1-(4-Fluorophenyl)-1H-1,2,3-triazol-4-yl)-8-methoxyquinoline] returned a Ki of 56000 nM.

Consider `COCCOc1cccc2ccc(-c3cn(-c4ccc(F)cc4)nn3)nc12` [Example 15, 2-(1-(4-Fluorophenyl)-1H-1,2,3-triazol-4-yl)-8-(3-methoxyethoxy)quinoline], for which affinity was put at a Ki of 64000 nM.

Take `Oc1ccc(-n2cc(-c3ccc4cccc(Oc5ccccc5)c4n3)nn2)cc1` [Example 17, 4-(4-(8-Phenoxyquinolin-2-yl)-1H-1,2,3-triazol-1-yl)phenol]: the affinity corresponds to a Ki of 2950 nM.

`Oc1ccc(-n2cc(-c3ccc4c(Oc5ccccc5)cccc4n3)nn2)cc1` [Example 18, 4-(4-(5-Phenoxyquinolin-2-yl)-1H-1,2,3-triazol-1-yl)phenol]: the affinity, expressed as Ki, was 370 nM.

The compound `Oc1ccc(-n2cc(-c3ccc4cc(OCCCN5CCOCC5)ccc4n3)nn2)cc1` [Example 19, 4-(4-(6-(3-Morpholinopropoxy)quinolin-2-yl)-1H-1,2,3-triazol-1-yl)phenol] gave an inhibitory constant (Ki) of 1950 nM.

The compound `Cc1cc2cc(OCCCN3CCOCC3)ccc2nc1-c1cn(-c2ccc(O)cc2)nn1` [Example 20, 4-(4-(3-Methyl-6-(3-morpholinopropoxy)quinolin-2-yl)-1H-1,2,3-triazol-1-yl)phenol] registered a Ki of 3120 nM.

In the case of `Fc1ccc(-n2cc(-c3ccc4cc(OCCOCCN5CCOCC5)ccc4n3)nn2)cc1` [Example 23, 4-(2-(2-((2-(1-(4-Fluorophenyl)-1H-1,2,3-triazol-4-yl)quinolin-6-yl)oxy)ethoxy)ethyl)morpholine], the Ki amounted to 29600 nM.

Regarding `COCCOc1ccc(Oc2cccc3nc(-c4cn(-c5ccc(O)cc5)nn4)ccc23)cc1` [Example 24, 4-(4-(5-(4-(2-Methoxyethoxy)phenoxy)quinolin-2-yl)-1H-1,2,3-triazol-1-yl)phenol], the Ki came out at 360 nM. Compared with the last compound, the Ki is about 82-fold lower.

For `COCCOc1cccc(Oc2cccc3nc(-c4cn(-c5ccc(O)c(F)c5)nn4)ccc23)c1` [Example 25, 2-Fluoro-4-(4-(5-(3-(2-methoxyethoxy)phenoxy)quinolin-2-yl)-1H-1,2,3-triazol-1-yl)phenol], the Ki worked out at 82 nM.

Compound `Oc1ccc(-n2cc(-c3ccc4cccnc4n3)nn2)cc1` [Example 26, 4-(4-(1,8-Naphthyridin-2-yl)-1H-1,2,3-triazol-1-yl)phenol] registered a Ki of 1480 nM. Compared with the last compound, the Ki is about 18-fold higher.

For `Oc1ccc(-n2cc(-c3ccc4ccc(OCCOCCN5CCOCC5)cc4n3)nn2)cc1` [Example 29, 4-(4-(7-(2-(2-Morpholinoethoxy)ethoxy)quinolin-2-yl)-1H-1,2,3-triazol-1-yl)phenol], the Ki stood at 850 nM.

Compound `Oc1ccc(-n2cc(-c3ccc4ccc(OCCOCCN5CCOCC5)cc4n3)nn2)cc1F` [Example 30, 2-Fluoro-4-(4-(7-(2-(2-morpholinoethoxy)ethoxy)quinolin-2-yl)-1H-1,2,3-triazol-1-yl)phenol] registered a Ki of 290 nM.

`COCCOc1ccc2nc(-c3cn(-c4ccc(O)cc4)nn3)ncc2c1` [Example 31, 4-(4-(6-(2-Methoxyethoxy)quinazolin-2-yl)-1H-1,2,3-triazol-1-yl)phenol]: the affinity corresponds to a Ki of 2350 nM.

The compound `Oc1c(F)cc(-n2cc(-c3ccc4cc(OCCOCCN5CCOCC5)ccc4n3)nn2)cc1F` [Example 33, 2,6-Difluoro-4-(4-(6-(2-(2-morpholinoethoxy)ethoxy)quinolin-2-yl)-1H-1,2,3-triazol-1-yl)phenol] displayed a Ki of 3750 nM. Against the preceding compound, the Ki is about 1.6-fold higher.

`O=C(O)c1ccc(Oc2cccc3nc(-c4cn(-c5ccc(O)c(F)c5)nn4)ccc23)cc1` [Example 35, 4-((2-(1-(3-Fluoro-4-hydroxyphenyl)-1H-1,2,3-triazol-4-yl)quinolin-5-yl)oxy)benzoic acid]: the affinity, expressed as Ki, was 110 nM.

As for `O=C(O)c1cccc(Oc2cccc3nc(-c4cn(-c5ccc(F)c(F)c5)nn4)ccc23)c1` [Example 36, 3-((2-(1-(3,4-Difluorophenyl)-1H-1,2,3-triazol-4-yl)quinolin-5-yl)oxy)benzoic acid], the affinity, expressed as Ki, was 4930 nM.

Turning to `NCc1cccc(Oc2cccc3nc(-c4cn(-c5ccc(O)c(F)c5)nn4)ccc23)c1` [Example 37, 4-(4-(5-(3-(Aminomethyl)phenoxy)quinolin-2-yl)-1H-1,2,3-triazol-1-yl)-2-fluorophenol], the affinity, expressed as Ki, was 568 nM.

On to `Oc1ccc(-n2cc(-c3ccc4c(Oc5cccc(OCCOCCN6CCOCC6)c5)cccc4n3)nn2)cc1F` [Example 38, 2-Fluoro-4-(4-(5-(3-(2-(2-morpholinoethoxy)ethoxy)phenoxy)quinolin-2-yl)-1H-1,2,3-triazol-1-yl)phenol], for which affinity was put at a Ki of 128 nM.

As to `O=C(O)c1ccc(Oc2cccc3ccc(-c4cn(-c5ccc(O)c(F)c5)nn4)nc23)cc1` [Example 39, 4-((2-(1-(3-Fluoro-4-hydroxyphenyl)-1H-1,2,3-triazol-4-yl)quinolin-8-yl)oxy)benzoic acid], the Ki was 296 nM.

For the compound `O=C(O)c1cccc(Oc2cccc3ccc(-c4cn(-c5ccc(O)c(F)c5)nn4)nc23)c1` [Example 40, 3-((2-(1-(3-Fluoro-4-hydroxyphenyl)-1H-1,2,3-triazol-4-yl)quinolin-8-yl)oxy)benzoic acid], the Ki worked out at 112 nM. This Ki lies about 2.6-fold lower than the previous one.

With `O=C(O)COc1ccc2ccc(-c3cn(-c4ccc(O)c(F)c4)nn3)nc2c1` [Example 41, 2-((2-(1-(3-Fluoro-4-hydroxyphenyl)-1H-1,2,3-triazol-4-yl)quinolin-7-yl)oxy)acetic acid], the Ki turned out to be 2240 nM. This Ki is about 20-fold higher than that of the compound before.

The compound `O=C(O)CCCOc1ccc2ccc(-c3cn(-c4ccc(O)c(F)c4)nn3)nc2c1` [Example 42, 4-((2-(1-(3-Fluoro-4-hydroxyphenyl)-1H-1,2,3-triazol-4-yl)quinolin-7-yl)oxy)butanoic acid] gave a Ki of 43 nM.

The series is the same for the next values; noted with them: read-out: % inhibition at 10 μM.
Take `COCCOc1ccc(-c2cn(-c3ccc(Cl)cc3)nn2)nc1` [Example 4, 2-(1-(4-Chlorophenyl)-1H-1,2,3-triazol-4-yl)-5-(2-methoxyethoxy)pyridine]: the inhibition at 10 µM was determined as 3%.

For the compound `COCCOc1ccc2nc(-c3cn(-c4ccc(N)cc4)nn3)ccc2c1` [Example 5, 4-(4-(6-(2-Methoxyethoxy)quinolin-2-yl)-1H-1,2,3-triazol-1-yl)aniline], the inhibition at 10 µM came to 13%.

Turning to `COCCOc1ccc2nc(-c3cn(-c4ccc(OC)cc4)nn3)ccc2c1` [Example 6, 6-(2-Methoxyethoxy)-2-(1-(4-methoxyphenyl)-1H-1,2,3-triazol-4-yl)quinoline], the inhibition at 10 µM stood at 0%.

For the compound `COCCOc1ccc2nc(-c3cn(-c4ccc(C#N)cc4)nn3)ccc2c1` [Example 7, 4-(4-(6-(2-Methoxyethoxy)quinolin-2-yl)-1H-1,2,3-triazol-1-yl)benzonitrile], the inhibition at 10 µM stood at 8%.

As to `COCCOc1ccc2nc(-c3cn(-c4ccc(C(N)=O)cc4)nn3)ccc2c1` [Example 8, 4-(4-(6-(2-Methoxyethoxy)quinolin-2-yl)-1H-1,2,3-triazol-1-yl)benzamide], the inhibition at 10 µM came out at 0%.

As to `COCCOc1ccc2nc(-c3cn(-c4ccc(O)c(C)c4)nn3)ccc2c1` [Example 9, 4-(4-(6-(2-Methoxyethoxy)quinolin-2-yl)-1H-1,2,3-triazol-1-yl)-2-methylphenol], the inhibition at 10 µM is 15%.

In the case of `COCCOc1ccc2nc(-c3cn(-c4ccc(O)c(OC)c4)nn3)ccc2c1` [Example 10, 2-Methoxy-4-(4-(6-(2-methoxyethoxy)quinolin-2-yl)-1H-1,2,3-triazol-1-yl)phenol], the inhibition at 10 µM was 8%.

In the case of `Oc1ccc(-n2cc(-c3ccc4cccc(Cl)c4n3)nn2)cc1` [Example 13, 4-(4-(8-Chloroquinolin-2-yl)-1H-1,2,3-triazol-1-yl)phenol], the inhibition at 10 µM came out at 16%.

Regarding `COc1ccc(-c2cccc3ccc(-c4cn(-c5ccc(O)cc5)nn4)nc23)cc1` [Example 16, 4-(4-(8-(4-Methoxyphenyl)quinolin-2-yl)-1H-1,2,3-triazol-1-yl)phenol], the inhibition at 10 µM was 21%.

On to `Clc1ccc(-n2cc(-c3ccc4cccnc4n3)nn2)cc1` [Example 27, 2-(1-(4-Chlorophenyl)-1H-1,2,3-triazol-4-yl)-1,8-naphthyridine], for which the inhibition at 10 µM came out at 9%.

Test system in the next series: not listed separately
Nature of the series: Aqueous solubility. The series is classed as physicochemical. To be noted: aqueous solvent (not further specified), μg compound/mL solvent.
`Oc1ccc(-n2cc(-c3ccc4ccccc4n3)nn2)cc1` [Example 1, 4-(4-(Quinolin-2-yl)-1H-1,2,3-triazol-1-yl)phenol] had a solubility of 2.2 µg/mL (≈ 7.63 µM).

`COCCOc1ccc2nc(-c3cn(-c4ccc(O)cc4)nn3)ccc2c1` [Example 2, 4-(4-(6-(2-Methoxyethoxy)quinolin-2-yl)-1H-1,2,3-triazol-1-yl)phenol] registered a solubility of 3.6 µg/mL (≈ 9.93 µM).

The compound `Oc1ccc(-n2cc(-c3ccc4cc(OCCOCCN5CCOCC5)ccc4n3)nn2)cc1` [Example 21, 4-(4-(6-(2-(2-Morpholinoethoxy)ethoxy)quinolin-2-yl)-1H-1,2,3-triazol-1-yl)phenol] had a solubility of 48.5 µg/mL (≈ 105 µM).

The compound `Oc1ccc(-n2cc(-c3ccc4cc(OCCOCCN5CCOCC5)ccc4n3)nn2)cc1F` [Example 22, 2-Fluoro-4-(4-(6-(2-(2-morpholinoethoxy)ethoxy)quinolin-2-yl)-1H-1,2,3-triazol-1-yl)phenol] yielded a solubility of 27.2 µg/mL (≈ 56.7 µM).

`NCCOCCOc1ccc2nc(-c3cn(-c4ccc(O)cc4)nn3)ccc2c1` [Example 28, 4-(4-(6-(2-(2-Aminoethoxy)ethoxy)quinolin-2-yl)-1H-1,2,3-triazol-1-yl)phenol] registered a solubility of 13.9 µg/mL (≈ 35.5 µM). This solubility is about 2-fold lower than that of the compound before.

On to `O=C(O)c1cccc(Oc2cccc3nc(-c4cn(-c5ccc(O)c(F)c5)nn4)ccc23)c1` [Example 32, 3-((2-(1-(3-Fluoro-4-hydroxyphenyl)-1H-1,2,3-triazol-4-yl)quinolin-5-yl)oxy)benzoic acid], for which the solubility turned out to be 47.2 µg/mL (≈ 107 µM).

What is called Ki is the equilibrium dissociation constant of an inhibitor or competing ligand from its target. As a reminder, the inhibition is the change of the read-out against control, counted positive when it falls. The term solubility denotes the concentration that dissolves in the medium under given conditions. Read a low solubility as little dissolved substance.

The record behind these values is patent US10336721B2, “Biaryltriazole inhibitors of macrophage migration inhibitory factor” (YALE UNIVERSITY, priority 2015, dated 2019).
